Test results published in patent US20220096431A1, “PHARMACEUTICAL COMPOSITION AND METHOD FOR PREVENTING, TREATING AND DIAGNOSING A NEURODEGENERATIVE DISEASE” (BUDDHIST TZU CHI MEDICAL FOUNDATION, priority 2020, published 2022).

Columns and labels:
Notch signaling = settings: background; cited from earlier work
3xTg AD mice = experiment: Morris water maze test in AD-3xTg mice; assay type: in vivo
Method: Red dot, starting point of the swim; green dot, end point of the swim.
N=4 for wild-type and 10 mg/kg donepezil-treated 3xTg mice. N=6 for vehicle-treated 3xTg mice, 60 mg/kg n-BP-treated 3xTg mice, and 120 mg/kg n-BP-treated 3xTg mice. *p-value<0.05, **p-value<0.01 (Student's t-test). […] After 4-12 months, the B6 (C57/BL6) control mice have no AP accumulation (Green color).
The mice behavioral experiment using Morris water maze is a classical test to detect short-term memory and complex memory. Through its behavior, it can be determined whether there is a difference in memory after drug treatment. […] Two sessions were conducted on Day 1 as follows: (1) mice were placed in the swimming pool to adapt to the environment for a training duration of 120 seconds; (2) a hidden rest platform was added to the pool at a precise location in the northwest corner of the pool (blue diamond in the east; red circle in the west and yellow triangle in the south as shown in FIG. 7G) and the mice were allowed for to swim in the pool for a duration of another 120 seconds. If the rescue platform was not found by the mouse within the allocated time, the mouse was guided to the platform. The test for finding the rescue platform is carried out for the next four consecutive days, with each session lasting 90 seconds. The result is collected and analyzed.

SH-SY5Y = experiment: Aβ1-42 poisoning experiment in SH-SY5Y cells (MTT); assay type: cell-based, human; settings: n-butylidenephthalide 100 μM, vitamin C 200 μM, alone or in combination, Aβ1-42 1 μM
Description: Then, the cell viability is detected by a cell survival test using (3-(4,5-dimethylthiazol-2-yl)-2,5-diphenyltetrazolium bromide (MTT) assay.

3′-UTR of PSEN-1 = experiment: Dual luciferase assay with PSEN-1 3′-UTR reporter constructs in SH-SY5Y cells; assay type: cell-based, human; settings: 50 nM miR-29b-2-5p
Method: The relative ratios of Renilla and firefly luciferase activity were measured.
The specificity and inhibitory effect of miRNA-29b-2-5p on the specific sequence of PSEN-1 can be confirmed by a dual luciferase assay. The dual luciferase assay includes two luminescence proteins, namely firefly luciferase (molecular weight 61 kDa, emission wavelength at about 560 nm) isolated from firefly (Photlnus pyralls) and Renilla luciferase (molecular weight 31 kDa, emission wavelength at about 480 nm) isolated from Renilla reniformis, which are combined with the sequence to be analyzed and cloned into a vector for amplification. After transfection into cells, the cells emit luminescence. To investigate the influence of these complementary sites, neuroblastoma cell line (SH-SY5Y) as shown in FIG. 2D is used as the cell model and 2 constructs containing continuous complementary (wild type) and noncomplementary (mutant) target site were designed as shown in FIG. 2E. The constructs were then transfected with a miR-29b-2-5p mimic into the SH-SY5Y cell line. The present disclosure uses three different PSEN-1 sequences for dual luciferase analysis, including the wild-type 3′-UTR sequence of PSEN-1, the site 2 mutant having a mutation at site 2 sequence of PSEN-1 that is predicted to be complementary to miRNA-29b-2-5p and double mutant in which both the site 1 and site 2 sequences, which are the sequences of PSEN-1 predicted to be complementary to miRNA-29b-2-5p, are mutated.

lnc-CYP3A43-2 = experiment: Biotin-based pulldown assay with real-time PCR; settings: real-time PCR of miRNA; n=3
Description: Then, a biotin-based pulldown assay was used to validate this interaction. The result shown in FIG. 6H indicates the lnc-CYP3A43-2 can affect target miR-29b-2-5p (41.84-fold).

[1] = tested on: PSEN-1, PSEN-2, Aβ1-42 and NICD in C6-C99 cells; experiment: Western blotting of amyloid-related proteins in C6-C99 cells; assay type: cell-based; settings: C6-C99 cells transfected with miR-29b-2-5p mimic, compared with control cells, n=3
[2] = tested on: PSEN-1, PSEN-2, Aβ1-42 and NICD in C6-C99 cells; experiment: as above; assay type: cell-based; settings: C6-C99 cells transfected with miR-29b-2-5p mimic; compared with control cells; n=3
Description: FIG. 3B to FIG. 3E are the quantitative results of the Western blotting analysis of PSEN-1, PSEN-2, β-amyloid 1-42 (Aβ1-42) and NICD in FIG. 3A, respectively (p*<0.05, p**<0.01). The C6-C99 cells used in FIGS. 3A to 3E are glioma cells having a fragment of human amyloid precursor protein (APP). This fragment is a peptide fragment with 99 amino acids (APP-C99), which can express large amounts of PSEN-1, PSEN-2, and Aβ 1-42 after activation by cumate.
Western blotting is used to detect the expression levels of amyloid-related proteins, including PSEN-1, PSEN-2, and β-amyloid 1-42 (Aβ1-42), while simultaneously detect the expression level of Notch protein (Notch intracellular domain, NICD), which is an indicator of drug safety. If the Notch protein is not affected, then drug safety is indicated.
APP-C99 was transfected into C6 cells with the C99 peptide through cumate-inducible system activation.

CC(C)[C@H](O)C(=O)N[C@@H](C)C(=O)N[C@@H]1C(=O)N(C)CCc2ccccc21 [LY450139]
Adverse reactions (Notch signaling): causes skin tumors and differentiation of intestinal epithelial cell
Effect on Notch signaling (Notch signaling): damages Notch signaling

COc1cc2c(cc1OC)C(=O)C(CC1CCN(Cc3ccccc3)CC1)C2 (stereo not shown) [donepezil, reference compound]
Locating and arriving at the resting platform (3xTg AD mice; 120 mg/kg n-BP, donepezil as positive control): able to quickly locate and arrive at the resting platform
Time required to find the platform (3xTg AD mice; Day 5, 120 mg/kg n-BP, 10 mg donepezil/kg, vs untreated 3xTg mice): significantly lower

O=C1O[C@H]([C@@H](O)CO)C(O)=C1O [vitamin C, ascorbic acid, reference compound]
Cell survival, protection against Aβ1-42 damage (SH-SY5Y): has an effect on increasing cell survival

miR-29b-2-5p: mature miRNA-29b-2-5p nucleic acid, sequence cugguuucacaugguggcuuag (SEQ ID NO.: 1); used as mimic (CUGGUUUCACAUGGUGGCUUAG; listed as RNA, chemistry not given here; listed as Homo sapiens)
Luminescence of reporter, PSEN-1 double site mutant (3′-UTR of PSEN-1): abolished the inhibitory effect
Luminescence of reporter, PSEN-1 site 2 mutant (3′-UTR of PSEN-1): abolished the inhibitory effect
Luminescence of reporter, wild type 3′-UTR of PSEN-1 (3′-UTR of PSEN-1): decreased the expression of the reporter
Luminescence of reporter, PSEN-1 double site mutant (3′-UTR of PSEN-1; listed as miRNA-29b-5p): no significant difference in the luminescence emitted
Luminescence of reporter, PSEN-1 site 2 mutant (3′-UTR of PSEN-1; listed as miRNA-29b-5p): no significant difference in the luminescence
Luminescence of reporter, wild type 3′-UTR of PSEN-1 (3′-UTR of PSEN-1; listed as miRNA-29b-5p): the luminescence emitted was inhibited
miR-29b-2-5p in lnc-CYP3A43-2 pulldown (lnc-CYP3A43-2): 41.84 fold
Aβ1-42 expression [1]: 48.75%±26.77%
Aβ1-42 expression ([1]; listed as miRNA-29b-2-5p): decreased
PSEN1 expression ([1]; listed as miRNA-29b-2-5p): decreased
PSEN1 expression [2]: 100%±19.31%
